Legend:
[1] = Crystallinity of salt forms by HT-XRPD; assay type: physicochemical; conditions: salt screen solid forms
Protocol: The precipitated solids were analyzed by high throughput X-ray powder diffractometry (HT XRPD). Liquid phases (both solutions and mother liquors) were evaporated at ambient conditions and the residual solids were analyzed by HT XRPD.
XRPD patterns were obtained using the Ardena T2 high-throughput XRPD set-up. The plates were mounted on a Bruker General Area Detector Diffraction System (GADDS) equipped with a VÅNTEC-500 gas area detector corrected for intensity and geometric variations. The calibration of the measurement accuracy (peaks position) was performed using NIST SRM1976 standard (Corundum).
No background subtraction or curve smoothing was applied to the XRPD patterns.

[2] = Physical stability under Accelerated Aging Conditions (AAC, 40° C./75% RH, 2 days), HT-XRPD; conditions: for Physical Stability: AAC 40° C./75% RH, 2 days, re-analyzed by HT-XRPD; for physical stability upon exposure to AAC: Example 2; for physical stability upon exposure to AAC / Physically stable after AAC: 40° C./75% RH for 2 days; for Physically stable after AAC: Example 1
Protocol: The solids were separated from the liquid phases by centrifugation, dried overnight under vacuum at 50° C. and analyzed by HT-XRPD. Solvents from the remaining mother liquors and solutions were evaporated under ambient conditions (evaporative crystallization experiments) and the residual solids were analyzed by HT-XRPD.
Slurries of the amorphous solids (GEN9 and GEN16, respectively) were prepared in 15 solvents at room temperature. The suspensions were subjected to a temperature profile, which comprised of three heating and cooling cycles. At the end of the temperature profile, the solids were isolated by centrifugation and dried at ambient conditions and under vacuum at 50° C. Upon completion of all crystallization experiments, all solids were analyzed by HT-XRPD.

Structure (SMILES)	Crystallinity [1]	Physical Stability [2]	physical stability upon exposure to AAC [2]	Physically stable after AAC [2]
NC(=NC(=O)c1nc(Cl)c(N)nc1N)NCc1ccccc1.O=C(O)CCCCC(=O)O [ADI1]	Good	Unstable		
NC(=NC(=O)c1nc(Cl)c(N)nc1N)NCc1ccccc1.O=S(=O)(O)c1ccccc1 [BES1]	Good	Unstable		
N=C(NCc1ccccc1)NC(=O)c1nc(Cl)c(N)nc1N.O=S(=O)(O)c1ccccc1 [BES2]	Good	Unstable		
CCCC(=O)O.NC(=NC(=O)c1nc(Cl)c(N)nc1N)NCc1ccccc1 [BUT2]	Poor	Unstable		
NC(=NC(=O)c1nc(Cl)c(N)nc1N)NCc1ccccc1.O=C(O)C=Cc1ccccc1 [CIN1]	Moderate	Stable	physically stable	
NC(=NC(=O)c1nc(Cl)c(N)nc1N)NCc1ccccc1.O=C(O)C=Cc1ccccc1 [CIN2]	Good	Stable	physically stable	
NC(=NC(=O)c1nc(Cl)c(N)nc1N)NCc1ccccc1.O=C(O)CC(O)(CC(=O)O)C(=O)O [CIT1]	Moderate/Poor	Unstable		
NC(=NC(=O)c1nc(Cl)c(N)nc1N)NCc1ccccc1.O=C(O)CC(O)(CC(=O)O)C(=O)O [CIT2]	Good			
Cl.Cl.N=C(NCc1ccccc1)NC(=O)c1nc(Cl)c(N)nc1N [Di-HCl1]				physically unstable
NC(=NC(=O)c1nc(Cl)c(N)nc1N)NCc1ccccc1.O=S(=O)(O)CCS(=O)(=O)O [EDY1]	Good	Unstable		
NC(=NC(=O)c1nc(Cl)c(N)nc1N)NCc1ccccc1.O=S(=O)(O)CCS(=O)(=O)O [EDY2]	Good	Stable	physically stable	
NC(=NC(=O)c1nc(Cl)c(N)nc1N)NCc1ccccc1.O=S(=O)(O)CCS(=O)(=O)O [EDY3]	Good	Stable	physically stable	
NC(=NC(=O)c1nc(Cl)c(N)nc1N)NCc1ccccc1.NC(=NC(=O)c1nc(Cl)c(N)nc1N)NCc1ccccc1.O=S(=O)(O)CCS(=O)(=O)O [EDY4]	Good	Unstable		
NC(=NC(=O)c1nc(Cl)c(N)nc1N)NCc1ccccc1.O=S(=O)(O)CCS(=O)(=O)O [EDY5]	Moderate			
CCS(=O)(=O)O.NC(=NC(=O)c1nc(Cl)c(N)nc1N)NCc1ccccc1 [ESY1]	Good	Stable	physically stable	
CCS(=O)(=O)O.NC(=NC(=O)c1nc(Cl)c(N)nc1N)NCc1ccccc1 [ESY3]	Poor	Unstable		
CCS(=O)(=O)O.NC(=NC(=O)c1nc(Cl)c(N)nc1N)NCc1ccccc1 [ESY4]	Moderate			
N=C(NCc1ccccc1)NC(=O)c1nc(Cl)c(N)nc1N.O=CO [FOR1]	Good			
NC(=NC(=O)c1nc(Cl)c(N)nc1N)NCc1ccccc1.O=CO [FOR2]	Moderate/Poor	Unstable		
NC(=NC(=O)c1nc(Cl)c(N)nc1N)NCc1ccccc1.O=CO [FOR4]	Good			

Structure (SMILES)	Crystallinity [1]	Physical Stability [2]	physical stability upon exposure to AAC [2]	Physically stable after AAC [2]
NC(=NC(=O)c1nc(Cl)c(N)nc1N)NCc1ccccc1.O=CO [FOR5]	Good			
NC(=NCc1ccccc1)NC(=O)c1nc(Cl)c(N)nc1N.O=C(O)C=CC(=O)O [FUM1]	Good	Unstable		
N=C(NCc1ccccc1)NC(=O)c1nc(Cl)c(N)nc1N.O=C(O)C=CC(=O)O [FUM2]	Good	Stable	physically stable	
NC(=NC(=O)c1nc(Cl)c(N)nc1N)NCc1ccccc1.O=C(O)c1ccco1 [FUR1]	Good	Stable	physically stable	
NC(=NC(=O)c1nc(Cl)c(N)nc1N)NCc1ccccc1.O=C(O)c1ccco1 [FUR2]	Good			
NC(=NC(=O)c1nc(Cl)c(N)nc1N)NCc1ccccc1.O=C(O)c1ccco1 [FUR3]	Good	Unstable		
NC(=NC(=O)c1nc(Cl)c(N)nc1N)NCc1ccccc1.O=C(O)c1cc(O)ccc1O [GEN1]	Moderate	Stable	physically stable	
N=C(NCc1ccccc1)NC(=O)c1nc(Cl)c(N)nc1N.O=C(O)c1cc(O)ccc1O [GEN2]	Moderate	Stable	physically stable	
NC(=NC(=O)c1nc(Cl)c(N)nc1N)NCc1ccccc1.O=C(O)c1cc(O)ccc1O [GEN3]	Moderate	Unstable		
Br.Br.NC(=NC(=O)c1nc(Cl)c(N)nc1N)NCc1ccccc1 [HBR3]	Moderate	Unstable		
Br.NC(=NC(=O)c1nc(Cl)c(N)nc1N)NCc1ccccc1 [HBR6]	Good			
Br.N=C(NCc1ccccc1)NC(=O)c1nc(Cl)c(N)nc1N [HBR7]	Good			
Br.N=C(NCc1ccccc1)NC(=O)c1nc(Cl)c(N)nc1N [HBR8]	Good			
Br.NC(=NC(=O)c1nc(Cl)c(N)nc1N)NCc1ccccc1 [HBR10]	Moderate	Unstable		
NC(=NC(=O)c1nc(Cl)c(N)nc1N)NCc1ccccc1.O=C(O)CNC(=O)c1ccccc1 [HIP1]	Good	Unstable		
NC(=NC(=O)c1nc(Cl)c(N)nc1N)NCc1ccccc1.O=C(O)CNC(=O)c1ccccc1 [HIP2]	Poor			
NC(=NC(=O)c1nc(Cl)c(N)nc1N)NCc1ccccc1.O=C(O)C=CC(=O)O [MAE2]	Good	Stable	physically stable	
NC(=NC(=O)c1nc(Cl)c(N)nc1N)NCc1ccccc1.O=C(O)C=CC(=O)O [MAE3]	Moderate	Stable	physically stable	
NC(=NC(=O)c1nc(Cl)c(N)nc1N)NCc1ccccc1.O=C(O)C[C@H](O)C(=O)O [MAL1]	Good	Stable	physically stable	
N=C(NCc1ccccc1)NC(=O)c1nc(Cl)c(N)nc1N.O=C(O)CC(=O)O [MAO4]	Good			

Structure (SMILES)	Crystallinity [1]	Physical Stability [2]	physical stability upon exposure to AAC [2]	Physically stable after AAC [2]
CS(=O)(=O)O.NC(=NC(=O)c1nc(Cl)c(N)nc1N)NCc1ccccc1 [MES3]	Moderate			
N=C(NCc1ccccc1)NC(=O)c1nc(Cl)c(N)nc1N.O=[N+]([O-])O [NIT1]				physically unstable
NC(=NCc1ccccc1)NC(=O)c1nc(Cl)c(N)nc1N.O=[N+]([O-])O [NIT2]				physically unstable
NC(=NC(=O)c1nc(Cl)c(N)nc1N)NCc1ccccc1.O=[N+]([O-])O [NIT4]				physically unstable
N=C(NCc1ccccc1)NC(=O)c1nc(Cl)c(N)nc1N.O=S(=O)(O)c1ccc2ccccc2c1 [NSA1]	Good	Unstable		
NC(=NC(=O)c1nc(Cl)c(N)nc1N)NCc1ccccc1.O=S(=O)(O)c1ccc2ccccc2c1 [NSA2]	Moderate	Stable	physically stable	
NC(=NCc1ccccc1)NC(=O)c1nc(Cl)c(N)nc1N.O=S(=O)(O)c1ccc2ccccc2c1 [NSA4]	Poor	Stable	physically stable	
N=C(NCc1ccccc1)NC(=O)c1nc(Cl)c(N)nc1N.O=C(O)c1cc(=O)[nH]c(=O)[nH]1 [ORO1]	Good	Stable	physically stable	
NC(=NCc1ccccc1)NC(=O)c1nc(Cl)c(N)nc1N.O=C(O)c1cc(=O)[nH]c(=O)[nH]1 [ORO2]	Good - poorly	Stable	physically stable	
NC(=NC(=O)c1nc(Cl)c(N)nc1N)NCc1ccccc1.O=C(O)c1cc(=O)[nH]c(=O)[nH]1 [ORO3]	Poor	Poor-		
NC(=NC(=O)c1nc(Cl)c(N)nc1N)NCc1ccccc1.O=C(O)c1cc2ccccc2c(Cc2c(O)c(C(=O)O)cc3ccccc23)c1O [PAM4]	Poor			
N=C(NCc1ccccc1)NC(=O)c1nc(Cl)c(N)nc1N.O=P(O)(O)O [PHO1]				physically unstable
CCC(=O)O.NC(=NC(=O)c1nc(Cl)c(N)nc1N)NCc1ccccc1 [PRO5]	Moderate			
NC(=NC(=O)c1nc(Cl)c(N)nc1N)NCc1ccccc1.O=C(O)c1ccccc1O [SAL2]	Poor			
NC(=NC(=O)c1nc(Cl)c(N)nc1N)NCc1ccccc1.O=S(=O)(O)O [SUL2]				physically unstable
Cc1ccc(S(=O)(=O)O)cc1.N=C(NCc1ccccc1)NC(=O)c1nc(Cl)c(N)nc1N [TOS2a]				physically unstable
Cc1ccc(S(=O)(=O)O)cc1.N=C(NCc1ccccc1)NC(=O)c1nc(Cl)c(N)nc1N [TOS3]				physically stable
CCCCC(=O)O.NC(=NC(=O)c1nc(Cl)c(N)nc1N)NCc1ccccc1 [VAL2]	Poor			

Source: patent US20250002463A1, “NEW SALT FORMS OF AMILORIDE AND ITS DERIVATIVES FOR PHARMACEUTICAL USE” (PSOMRI Holding AB, priority 2021, published 2025)
